Row | SMILES | melting point [°C]
1 | O=c1ccc(-c2ccc(Cc3nn[nH]n3)cc2)cn1Cc1ccc(Cl)cc1 | 231
2 | CN(C)C1CCc2[nH]c3cc(OCc4ccccc4)ccc3c2C1 (stereo unspecified) | 237 to 239
3 | COCC1CCCN1S(=O)(=O)c1cc2c(cc1Cl)N1CCCN=C1C2=O (stereo unspecified) | 127 to 130
4 | CC(C)(C)C(=O)c1cnn2c1NCCC2 | 169 to 170
5 | CCc1ccc2nc(OC)nc(N)c2c1 | 168 to 170
6 | CNC(=O)c1c(I)c(NC(C)=O)c(I)c(C(=O)NCCC(=O)O)c1I | 190
7 | O=C1c2ccccc2C(=O)N1C1CCN(CCCc2c[nH]c3ccccc23)CC1 | 187 to 190
8 | CC(C)(F)C1COCc2nc3c(N)nc4c(c3n21)CCCC4 (stereo unspecified) | 196 to 197
9 | CNC(=O)c1cc2c(nc(C)n2C)c2c1C(=O)CC1(Cc3ccccc3C1)N2 | 261
10 | Cn1c(=O)n(Cc2ccc(F)cc2)c(=O)c2cc(C(=O)c3nc(-c4cccnc4)c4ccccn34)ccc21 | 207
11 | Cc1ccc(S(=O)(=O)n2ccnc2C(O)(c2ccccc2)c2ccc(Cl)cc2)cc1 (stereo unspecified) | 116 to 118
12 | Cc1c(C)c2c(c(C)c1C=O)CC(C)(C)C2 | 61 to 62
13 | O=C(Nc1ccc(Oc2ccc(C(=O)N3CCC(C(=O)N4CCN(Cc5ccc6c(c5)OCO6)CC4)CC3)cc2)nc1)c1ccc(Cl)c(Cl)c1 | 236 to 238
14 | Cc1ccc(C(=O)NC(NC(=NC#N)Nc2ccc(Cl)nc2)C(C)(Cl)Cl)cc1 (stereo unspecified) | 198 to 200
15 | Cc1ccc(-c2csc(-c3ccc(C(=O)O)cc3)n2)cc1C | 261 to 262
16 | CN(Cc1sc2c(=O)c(C(=O)NCc3ccc(Cl)cc3)cn(C)c2c1CO)CC(O)c1ccc2ccccc2n1 (stereo unspecified) | 196 to 198
17 | CC(=O)NC(C)Cc1cc2c(cc1CC(=O)O)OCO2 (stereo unspecified) | 195 to 197
18 | Clc1ccc(C(c2ccccc2)c2c(Cl)ncnc2Cl)c(Cl)c1 (stereo unspecified) | 138 to 139
19 | CC(=O)N(C(=O)N(C)C)c1snc(C(C)C)c1C#N | 128 to 130
20 | COc1ccc(-n2nc(C(F)(F)F)cc2-c2ccc(S(C)(=O)=O)cc2)cc1Br | 164 to 166
21 | Nc1cc(C(=O)O)cc(S(N)(=O)=O)c1Oc1cccc(Cl)c1 | 239 to 240
22 | O=C(O)Cc1ccc2c(c1)CCCOO2 | 99 to 101
23 | CC(C)(C)c1cc(CN)cc(C(C)(C)C)c1O | 159
24 | BrC(Br)Cc1cccc2[nH]c(-c3ccccc3)cc12 | 106

Row | SMILES | melting point [°C]
25 | COc1cc2cc(CC(C)C)sc2c(Cl)c1Cl | 40 to 41
26 | CC(C)(C)[Si](OCC1OC(n2ccc(N)nc2=S)C(O)(CC[Si](C)(C)C)C1O)(c1ccccc1)c1ccccc1 (stereo unspecified) | 126
27 | CCOC(=O)C(=Cc1cccn2c(Br)c(C)nc12)N=[N+]=[N-] | 108 to 110
28 | O=C(O)CCCCCCCCCCCNC(=O)CCCCCCCCCCBr | 122
29 | CCc1ccc(Oc2cnc[nH]c2=O)cc1 | 144 to 146
30 | OC(=S)c1ccc2cccnc2c1O | 174 to 175
31 | CCCNCCc1ccc(NS(=O)(=O)c2ccc(Br)cc2)cc1 | 141 to 143
32 | O=C(O)C(CC1CCCC1)c1ccc(Cl)c([N+](=O)[O-])c1 (stereo unspecified) | 112 to 115
33 | CCCC1=C([N+](=O)[O-])C(c2cccc3c2OCCC3)c2c[nH]nc2N1 (stereo unspecified) | 234
34 | COC(=O)c1cc(-c2cccc(C(=O)O)c2)c2cc(Cc3ccc(F)cc3)cnc2c1O | 265 to 267
35 | O=c1c(C2=CS(=O)(=O)c3cc(NS(=O)(=O)C4CC4)ccc3N2)c(O)c2cc(F)ccc2n1CCC1CC1 | 145 to 155
36 | COC1=CC(=O)CN(C)C1 | 71 to 72
37 | Cn1c2c(c3ccccc3c1=O)C(=O)c1cc(OCc3ccccc3)c(OCc3ccccc3)cc1-2 | 198 to 200
38 | CCOC(=O)CNc1c(N)c(=O)c1=O | 231 to 233
39 | COCCC(=O)N[C@H]1CC[C@H](CCN2CCN(c3nccc4c3OCC4)CC2)CC1 | 180
40 | CC(=O)NS(=O)(=O)c1cccc(-c2cccc(-c3cc(-c4ccc(C(F)(F)F)cc4)cc(C)n3)n2)c1 | 244
41 | O=C1CCCCC1=CC(=O)c1ccccc1 | 75 to 77
42 | N#Cc1nc(C#N)c(C#N)nc1C#N | 274 to 276
43 | Nc1nc2[nH]c(CCCCc3ccc(C(=O)N[C@@H](CCC(=O)O)C(=O)O)o3)cc2c(=O)[nH]1 | 174 to 175
44 | O=C(c1ccc(-c2ccccc2)cc1)N1CCc2cn[nH]c2-c2ncccc21 | 205 to 206
45 | O=C1N[C@H](CCl)[C@@H]1N1C(=O)c2ccccc2C1=O (relative stereo) | 172
46 | Cn1nc(-c2ccc(F)cc2)c(-c2ccncc2)c1CCCc1ccc([N+](=O)[O-])cc1 | 129 to 132
47 | COc1ccccc1C(NCC(=O)Nc1c(C(C)C)cccc1C(C)C)c1ccccc1 (stereo unspecified) | 133 to 134
48 | CCOC(=O)c1c(N)c2c(n1C)N=CCN2 | 119 to 121

Row | SMILES | melting point [°C]
49 | CC(=O)c1cc(N=C=O)cc(C(C)=O)c1 | 71
50 | CN(C)C1CCCC1Cc1cccc(-c2cccc(N)n2)c1 (stereo unspecified) | 60 to 80
51 | CSCCC1N=C(c2ccccc2)c2cc(Cl)ccc2NC1=O (stereo unspecified) | 184
52 | CCCCC1CCc2c(OCc3ccc4ccccc4n3)cccc2C1=O (stereo unspecified) | 97 to 98
53 | O=C(NC(=O)c1cc(Cl)cc(Cl)c1)NC1CN2CCC1CC2 (stereo unspecified) | 253 to 254
54 | Nc1ccc2ccccc2c1[N+](=O)[O-] | 123 to 125
55 | COc1ccc(CCNS(=O)(=O)Cc2ccc3[nH]cc(CC#N)c3c2)cc1 | 134 to 135
56 | COC(=O)c1ccc(CN2C(=O)C3(COc4cc5c(cc43)OCCO5)c3ccccc32)o1 (stereo unspecified) | 88 to 92
57 | O=[N+]([O-])c1cccc2nc3c(nc12)N1CCCCC1CO3 (stereo unspecified) | 182 to 184
58 | O=C(NCCO)c1cccc(-c2cccc3oc(Cc4cccc(C(F)(F)F)c4)nc23)c1 | 132 to 133
59 | Cc1nc2c(N)nc3cccnc3c2n1CC1(O)CCN(C(=O)OC(C)(C)C)CC1 | 233 to 235
60 | CC(C(=O)N(C)CCO)c1cc(C(C)(C)C)c(O)c(C(C)(C)C)c1 (stereo unspecified) | 66
61 | COc1ccc(C(=O)n2cccc2Br)c(OC)c1 | 81 to 82
62 | CS(=O)(=O)c1ccccc1C(=O)N1CCC(N2CCC(Oc3ccc(Cl)c(Cl)c3)CC2)CC1 | 141
63 | CC(C)(CNC(=O)COCC(=O)O)SN=O | 81 to 83
64 | CC1(C)COc2c1cc(C=O)c(O)c2Br | 152 to 154
65 | CC(=O)Nc1ccc(C(O)C2CCN(CCc3ccccc3)CC2)cc1 (stereo unspecified) | 173 to 174
66 | Cc1ccc(-c2nnc(N3CCC(C(N)=O)CC3)nc2-c2ccc(C)cc2)cc1 | 222 to 224
67 | O=C1CCC(N2Cc3c(OCc4ccc(CN5CCN(c6ncccn6)CC5)cc4)cccc3C2=O)C(=O)N1 (stereo unspecified) | 142 to 144
68 | CC(=O)ON1C(C)(C)CC(OC(=O)NCCCCCCNC(=O)OC2CC(C)(C)N(OC(C)=O)C(C)(C)C2)CC1(C)C | 158 to 163
69 | Cc1ccc(C(=O)Nc2ccc(C=O)c(C(F)(F)F)c2)cc1Br | 194 to 195
70 | CSC1C(=O)Nc2cc(-c3ccccc3)ccc21 (stereo unspecified) | 177 to 178
71 | COc1cc(C2c3cc4c(cc3C(O)CC2C(=O)O)OCO4)cc(OC)c1OC (stereo unspecified) | 181 to 182
